Reference: US20260257992A1, “AGONISTS OF SMALL HETERODIMER PARTNER FOR CANCER THERAPY” (THE BOARD OF TRUSTEES OF THE UNIVERSITY OF ILLINOIS, priority 2023, published 2026)

Columns and labels:
NR0B2 = target: T1, NR0B2 (Homo sapiens, UniProt Q15466); test: ABCA1 reporter screen to identify NR0B2 agonists (HepG2); assay type: cell-based; design: key: ✓: using strict cutoffs with respect to DSHN for passing each metric; X: using strict cutoffs with respect to DSHN for passing each metric; details: HepG2, 50 μM test compound, 1 μM GW3965; pass/fail with respect to DSHN
T1 construct: a reporter assay which makes use of the endogenous cholesterol homeostatic feedback loop; endogenous in cells; host or cells: HepG2
T1 sequence (Q15466 1-257): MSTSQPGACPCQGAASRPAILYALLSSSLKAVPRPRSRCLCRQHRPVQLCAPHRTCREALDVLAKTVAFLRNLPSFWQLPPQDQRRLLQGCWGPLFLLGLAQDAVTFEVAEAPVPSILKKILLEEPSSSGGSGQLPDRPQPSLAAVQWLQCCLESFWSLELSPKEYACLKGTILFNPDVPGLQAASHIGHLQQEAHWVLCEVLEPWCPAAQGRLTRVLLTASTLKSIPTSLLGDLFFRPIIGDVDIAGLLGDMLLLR
Text: (§1) Development of a more efficacious NR0B2 agonist. While DSHN was a useful proof-of-concept small molecule, macrophages required high doses and chronic exposure for robust influences on subsequent Tregs expansion. […] Therefore, we synthesized several derivatives of DSHN and screened them using a reporter assay which makes use of the endogenous cholesterol homeostatic feedback loop, where FXR activation upregulates NR0B2, which then inhibits LXR and its normal induction of ABCA1. We then followed this screen with several others with stringent cutoffs: effect on endogenous ABCA1 and IL1β expression, reduction of Treg expansion in either macrophage or DC co-cultures, and low cellular toxicity (FIG. 5A, Table 4).
Screening to identify NR0B2 agonists. HepG2 cells were co-transfected with ABCA1 renilla reporter plasmid and TK-control firefly luciferase vector at 20:1 using Lipofectamine 3000 reagent according to manufacturer's instructions for 24 hrs. Afterwards, 7000 cells were seeded in to 384 well f-bottom, white plates (Greiner Bio-One). Test compounds were added to the plates in a final working volume of 30 μL (for a final concentration of 50 μM) in presence of DMSO or 1 μM GW3965 and incubated for 20-24 hrs at 37° C. Luciferase activity was measured using the Luc-Pair Duo-Luciferase HT Assay kit (GeneCopoeia, Rockville, MD, USA) by adding luciferase substrates sequentially following manufacturer instructions. Luminescence was measured with 2 s integration times in a microplate reader (BioTek Cytation 5), 15 min after adding each substrate. The addition of reagents to the microplates was timed at each step to match the reading time delays and reading sequence of the microplate reader.

Treg expansion [1] = test: Treg expansion in co-culture with compound-treated BMDMs (macrophages); assay type: cell-based, mouse; design: key to Treg expansion macrophages: ✓: using strict cutoffs with respect to DSHN for passing each metric; X: using strict cutoffs with respect to DSHN for passing each metric; details: pass/fail with respect to DSHN
Method: (§2) Preparation of Bone Marrow-Derived Macrophages (BMDMs) and Dendritic Cells. Bone marrow cells were collected from mouse tibia and femur. Cells were passed through 70-micron cell strainer and subsequently cultured 10 mL complete RPMI media supplemented with 20 ng/mL of recombinant murine M-CSF (576406; BioLegend, 315-02 PeproTech). On day 3, additional 5 ml of the complete media was added. On day 7, media was replaced. BMDMs were harvested on day 10 using cell stripper solution for further experiments. Dendritic cells were isolated from the spleens of wildtype, using mouse CD11c UltraPure MicroBeads (130-125-835; Miltenyi Biotec) according to the manufacturer's instructions) and cultured in RPMI medium supplemented with 10% heat-inactivated charcoal-stripped FBS, 50 μM β-mercaptoethanol, 1% sodium pyruvate, 1% nonessential amino acids, % penicillin/streptomycin, and 1% Glutamax.
(§3) In vitro Treg expansion assays. T cells were cultured in RPMI medium supplemented with 10% heat-inactivated charcoal-stripped FBS, 50 μM β-mercaptoethanol (Gibco), 1% sodium pyruvate, 1% nonessential amino acids, % penicillin/streptomycin, and 1% Glutamax (Gibco). Naïve CD4^+ T cells were isolated from the spleens of wildtype and OT-II, using Naive CD4^+ T Cell Isolation Kit (Miltenyi Biotec according to the manufacturer's instructions). T cells were labeled with the vital dye CFSE (BioLegend) or Cell Trace Violet (ThermoFisher) according to the manufacturer's instructions. For wildtype Treg expansion in presence of antigen presenting cells, naïve CD4^+ T cells were co-cultured with APC at indicated ratio in the presence of 0.5 μg/mL (anti-CD3 BioLegend), 0.5 ng/mL TGFβ (BioLegend) and 0.5 ng/ml IL-2 (BioLegend) for 72 hr at 37° C. For OT-II Treg expansion, OTII naïve CD4^+ T cells from OT-II mice were activated by antigen presentation by culturing BMDMs were primed with 10 μg/mL OVA323-339 (Bachem) and 0.5 μg/mL LPS (Sigma). naïve CD4+ T cells from OTII mice were co-cultured with primed APC at indicated ratio for 72 hrs. After 72 hrs of culture, cells were transferred into V-bottom plates (BD), pelleted by centrifugation and incubated with antibody staining mix containing Ghost Dye™ Red 780 viability dye diluted in PBS for 15 minutes at 4° C. Cell surface antigens were stained for 15 minutes at 4° C. with an antibody staining mix containing Ghost Dye™ Red 780 viability dye diluted in PBS. Cells were fixed and permeabilized with BD Cytofix/Cytoperm™ for 20 minutes at 4° C. Antibodies against intracellular antigens were diluted in 1×BD Perm/Wash™ buffer and cells were stained for 30 minutes at 4° C. Cytometry data were acquired on a LSRII, Fortessa, Symphony A1 (Becton Dickinson, NJ). Foxp3 induction was assessed by expression of FOXP3.

Treg expansion [2] = test: Treg expansion in co-culture with compound-treated splenic CD11C+ dendritic cells; assay type: cell-based, mouse; design: key to Treg expansion Dendritic Cells: ✓: using strict cutoffs with respect to DSHN for passing each metric; X: using strict cutoffs with respect to DSHN for passing each metric; details: pass/fail with respect to DSHN
Method: as §2, §3

ABCA1 mRNA = ABCA1 mRNA reduction in Raw cells; assay type: cell-based; design: key: ✓: using strict cutoffs with respect to DSHN for passing each metric; X: using strict cutoffs with respect to DSHN for passing each metric; details: pass/fail with respect to DSHN
Text: as §1

IL1b mRNA = IL1b mRNA reduction in Raw cells; assay type: cell-based; design: key: ✓: using strict cutoffs with respect to DSHN for passing each metric; X: using strict cutoffs with respect to DSHN for passing each metric; details: pass/fail with respect to DSHN
Text: as §1

[3] = Low cellular toxicity screen; assay type: cell-based; design: key: ✓: using strict cutoffs with respect to DSHN for passing each metric; X: using strict cutoffs with respect to DSHN for passing each metric; details: pass/fail with respect to DSHN
Text: as §1
Resazurin cell viability assay. 20,000 cells were seeded into 96 well f-bottom, black plates (Corning Costar) and cell viability was measured using 100 μL resazurin per well at 0.3 mg/mL (Acros Organics). The fluorescence signal was quantified by plate reader (560 nm excitation/590 nm emission) at 2-3 h.

Row | ABCA1 reporter screen (NR0B2) | Compound | Treg expansion macrophages (Treg expansion [1]) | Treg expansion Dendritic Cells (Treg expansion [2]) | ABCA1 mRNA reduction (Raw Cells) (ABCA1 mRNA) | IL1b mRNA reduction (Raw Cells) (IL1b mRNA) | Low Toxicity [3]
1 | ✓ | CCNS(=O)(=O)c1ccc2cc(OC)c(C(=O)OC)cc2c1 [Compound 6, Methyl 7-(N-ethylsulfamoyl)-3-methoxy-2-naphthoate] | ✓ | ✓ | X | X | X
2 | ✓ | COC(=O)c1cc2cc(S(=O)(=O)N(C)C)ccc2cc1OC [Compound 8, Methyl 7-(N,N-dimethylsulfamoyl)-3-methoxy-2-naphthoate] | ✓ | ✓ | X | X | ✓

The next lines start with the compound.

Row | Compound | ABCA1 reporter screen (NR0B2) | Treg expansion macrophages (Treg expansion [1]) | Treg expansion Dendritic Cells (Treg expansion [2]) | ABCA1 mRNA reduction (Raw Cells) (ABCA1 mRNA) | IL1b mRNA reduction (Raw Cells) (IL1b mRNA) | Low Toxicity [3]
3 | CCNS(=O)(=O)c1cccc2cc(C(=O)OC)c(OC)cc12 [Compound 5, Methyl 5-(N-ethylsulfamoyl)-3-methoxy-2-naphthoate] | X | ✓ | ✓ | X | ✓ | ✓
4 | COC(=O)c1cc2cccc(S(=O)(=O)N(C)C)c2cc1OC [Compound 7, Methyl 5-(N,N-dimethylsulfamoyl)-3-methoxy-2-naphthoate] | ✓ | ✓ | ✓ | X | ✓ | ✓
5 | CCN(CC)S(=O)(=O)c1ccc2cc(O)c(C(=O)OC)cc2c1 [Compound 9, Methyl 7-(N,N-diethylsulfamoyl)-3-hydroxy-2-naphthoate] | X | ✓ | ✓ | X | ✓ | ✓
